Measured values taken from the NIST ThermoML archive (doi:10.1021/acs.jced.8b00132).
Several values for one entry are separate records, joined by “and”; a condition that tells them apart may be missing. Equal entries are not always repeated. Numbers after ± are expanded uncertainties.

Conditions: transient hot wire

O=C(C(F)(F)C(F)(F)F)C(F)(C(F)(F)F)C(F)(F)F [dodecafluoro-2-methylpentan-3-one]
Conditions	thermal conductivity
417.43 K, 35735 kPa, Liquid	0.06006 ± 0.0012 W/m/K
417.44 K, 35746 kPa, Liquid	0.06008 ± 0.0012 W/m/K
417.45 K, 995 kPa, Gas	0.022 ± 0.0014 W/m/K
417.46 K, 24856 kPa, Liquid	0.05553 ± 0.0011 W/m/K
417.46 K, 24868 kPa, Liquid	0.05553 ± 0.0011 W/m/K
417.48 K, 3782 kPa, Liquid	0.04235 ± 0.00089 W/m/K
417.49 K, 3785 kPa, Liquid	0.04236 ± 0.00089 W/m/K
417.5 K, 788 kPa, Gas	0.02105 ± 0.0013 W/m/K and 0.02104 ± 0.0013 W/m/K
417.52 K, 10593 kPa, Liquid	0.04792 ± 0.001 W/m/K
417.52 K, 10594 kPa, Liquid	0.04785 ± 0.001 W/m/K
417.53 K, 2204 kPa, Liquid	0.04067 ± 0.00085 W/m/K
417.53 K, 2206 kPa, Liquid	0.04059 ± 0.00085 W/m/K
417.56 K, 372 kPa, Gas	0.02094 ± 0.0013 W/m/K
417.59 K, 16285 kPa, Liquid	0.05128 ± 0.0011 W/m/K
417.59 K, 35671 kPa, Liquid	0.06014 ± 0.0012 W/m/K
417.59 K, 35701 kPa, Liquid	0.06019 ± 0.0012 W/m/K
417.6 K, 591 kPa, Gas	0.02077 ± 0.0013 W/m/K
417.6 K, 1024 kPa, Gas	0.0225 ± 0.00075 W/m/K
417.6 K, 16284 kPa, Liquid	0.05126 ± 0.0011 W/m/K
417.61 K, 594 kPa, Gas	0.02078 ± 0.0013 W/m/K
417.61 K, 6424 kPa, Liquid	0.04484 ± 0.00094 W/m/K
417.62 K, 6421 kPa, Liquid	0.0448 ± 0.00094 W/m/K
417.65 K, 994 kPa, Gas	0.02218 ± 0.0014 W/m/K
417.66 K, 995 kPa, Gas	0.02218 ± 0.0014 W/m/K
417.68 K, 785 kPa, Gas	0.02107 ± 0.0013 W/m/K
417.7 K, 788 kPa, Gas	0.02117 ± 0.0013 W/m/K
417.7 K, 3782 kPa, Liquid	0.04218 ± 0.00088 W/m/K and 0.04238 ± 0.00089 W/m/K
417.71 K, 10585 kPa, Liquid	0.04785 ± 0.001 W/m/K
417.73 K, 10592 kPa, Liquid	0.04786 ± 0.001 W/m/K
417.76 K, 371 kPa, Gas	0.02099 ± 0.0013 W/m/K
417.76 K, 372 kPa, Gas	0.0209 ± 0.0013 W/m/K
417.82 K, 589 kPa, Gas	0.02086 ± 0.0013 W/m/K
417.82 K, 6421 kPa, Liquid	0.0448 ± 0.00094 W/m/K
417.84 K, 994 kPa, Gas	0.02265 ± 0.0014 W/m/K
417.84 K, 6421 kPa, Liquid	0.04481 ± 0.00094 W/m/K
417.85 K, 994 kPa, Gas	0.02241 ± 0.0014 W/m/K
417.88 K, 785 kPa, Gas	0.02124 ± 0.0013 W/m/K
417.93 K, 3782 kPa, Liquid	0.04241 ± 0.00089 W/m/K
417.93 K, 3784 kPa, Liquid	0.04244 ± 0.00089 W/m/K
417.95 K, 369 kPa, Gas	0.02101 ± 0.0013 W/m/K
417.95 K, 370 kPa, Gas	0.02093 ± 0.0013 W/m/K
418.05 K, 588 kPa, Gas	0.02096 ± 0.0013 W/m/K
418.08 K, 784 kPa, Gas	0.02089 ± 0.0013 W/m/K
418.16 K, 367 kPa, Gas	0.02097 ± 0.0013 W/m/K
418.16 K, 369 kPa, Gas	0.02096 ± 0.0013 W/m/K
418.29 K, 587 kPa, Gas	0.02094 ± 0.0013 W/m/K
418.3 K, 587 kPa, Gas	0.02092 ± 0.0013 W/m/K
418.46 K, 367 kPa, Gas	0.02103 ± 0.0013 W/m/K
418.47 K, 366 kPa, Gas	0.02102 ± 0.0013 W/m/K
432.13 K, 1545 kPa, Gas	0.02726 ± 0.0017 W/m/K
432.18 K, 1546 kPa, Gas	0.02748 ± 0.0017 W/m/K
432.2 K, 1545 kPa, Gas	0.02732 ± 0.0017 W/m/K
432.24 K, 1546 kPa, Gas	0.02788 ± 0.0018 W/m/K
432.25 K, 1546 kPa, Gas	0.02765 ± 0.0018 W/m/K
432.26 K, 1546 kPa, Gas	0.0279 ± 0.0018 W/m/K
432.38 K, 2634 kPa, Liquid	0.03887 ± 0.00082 W/m/K
432.38 K, 2635 kPa, Liquid	0.0388 ± 0.00082 W/m/K
432.42 K, 1424 kPa, Gas	0.02465 ± 0.0015 W/m/K
432.43 K, 1423 kPa, Gas	0.02466 ± 0.0015 W/m/K
432.46 K, 1706 kPa, Liquid	0.03696 ± 0.00079 W/m/K
432.46 K, 1978 kPa, Liquid	0.03766 ± 0.0008 W/m/K
432.47 K, 1706 kPa, Liquid	0.03707 ± 0.00079 W/m/K
432.47 K, 1710 kPa, Liquid	0.03705 ± 0.00079 W/m/K
432.47 K, 1979 kPa, Liquid	0.03775 ± 0.0008 W/m/K
432.52 K, 1423 kPa, Gas	0.0248 ± 0.0015 W/m/K
432.52 K, 2633 kPa, Liquid	0.03885 ± 0.00082 W/m/K
432.53 K, 1423 kPa, Gas	0.02469 ± 0.0015 W/m/K
432.53 K, 2633 kPa, Liquid	0.03887 ± 0.00082 W/m/K
432.54 K, 1420 kPa, Gas	0.02444 ± 0.0015 W/m/K
432.55 K, 1420 kPa, Gas	0.0244 ± 0.0015 W/m/K
432.56 K, 1978 kPa, Liquid	0.03769 ± 0.00079 W/m/K
432.57 K, 1705 kPa, Liquid	0.03737 ± 0.00079 W/m/K and 0.03712 ± 0.00079 W/m/K
432.57 K, 1979 kPa, Liquid	0.0379 ± 0.0008 W/m/K
432.62 K, 1709 kPa, Liquid	0.03738 ± 0.00079 W/m/K
432.63 K, 1422 kPa, Gas	0.02518 ± 0.0016 W/m/K
432.63 K, 1709 kPa, Liquid	0.0377 ± 0.0008 W/m/K
432.65 K, 1419 kPa, Gas	0.02476 ± 0.0015 W/m/K and 0.02477 ± 0.0015 W/m/K
432.67 K, 1705 kPa, Liquid	0.03805 ± 0.00081 W/m/K
432.68 K, 1705 kPa, Liquid	0.0373 ± 0.00079 W/m/K
432.68 K, 1977 kPa, Liquid	0.03782 ± 0.0008 W/m/K
432.68 K, 1978 kPa, Liquid	0.03794 ± 0.0008 W/m/K
432.68 K, 2631 kPa, Liquid	0.03893 ± 0.00082 W/m/K
432.68 K, 2632 kPa, Liquid	0.03891 ± 0.00082 W/m/K
432.69 K, 3940 kPa, Liquid	0.04069 ± 0.00085 W/m/K and 0.04067 ± 0.00085 W/m/K
